Values after ≈ are worked out from the molar mass of the structure shown. Where two headings read alike, the source gives them in different places.
Columns and labels:
M. intracellulare = conditions: 31 strains, agar dilution; cited from earlier work
M. avium [1] = conditions: 18 strains, agar dilution; cited from earlier work
[2] = system: M. tuberculosis in human macrophages; assay: MIC and MBC against intracellular bacteria in human macrophages; assay type: cell-based, Mycobacterium tuberculosis
M. avium [3] = assay: Rabbit model of M. avium infection; assay type: in vivo; conditions: compared to controls
[4] = system: extracellular M. tuberculosis; assay: MIC and MBC against extracellular bacteria; assay type: cell-based, Mycobacterium tuberculosis
[5] = Clinical trial 005, rifalazil concentration in plasma of tuberculosis patients; assay type: in vivo, human; conditions: for maximum concentration of the drug in plasma: six hours; for concentration at 3 h / concentration at 11 day / concentration at 15 day / concentration at 0 h / concentration at 2 h / concentration at 5 h / concentration at 9 h / concentration at 12 h / concentration at 24 h / concentration at 48 h / concentration at 72 h: human, plasma; for concentration at 3 h: three hours; for concentration at 11 day: Day 11; for concentration at 15 day: Day 15; for concentration at 0 h: Hour 0; for concentration at 2 h: Hour 2; for concentration at 5 h: Hour 5; for concentration at 9 h: Hour 9; for concentration at 12 h: Hour 12; for concentration at 24 h: Hour 24; for concentration at 48 h: Hour 48; for concentration at 72 h: Hour 72
Description: Definite diagnosis and evaluation of treatment efficacy requires direct examination of sputum for the presence of M. tuberculosis. The extent of M. tuberculosis infection is determined by number of bacteria able to form colonies and is expressed as colony forming units. When the number of colony forming units (CFU) is high, the infection is unhindered. When the CFU decreases, the number of active M. tuberculosis bacteria decreases. The CFU, typically expressed as Log10, have therefore important diagnostic and treatment evaluative value.
Table 21 summarizes the plasma concentrations data of rifalazil measured in patients that received rifalazil at zero hour. The data are separated into 2 groups and are identified as INH+10 mg rifalazil (Group 3) and INH+25 mg rifalazil (Group 4). The concentration of rifalazil in plasma is presented in ng/mL and are shown as a timecourse (hours and days) wherein values were determined at several times over the two weeks of the study.

[6] = 10 mg, INH + 10 mg KRM, read-out: Rifalazil Concentration in Plasma, Max
[7] = 10 mg, INH + 10 mg KRM, read-out: Rifalazil Concentration in Plasma, Med
[8] = 10 mg, INH + 10 mg KRM, read-out: Rifalazil Concentration in Plasma, Min
[9] = 25 mg, INH + 25 mg KRM, read-out: Rifalazil Concentration in Plasma, Max
[10] = 25 mg, INH + 25 mg KRM, read-out: Rifalazil Concentration in Plasma, Mean
[11] = 25 mg, INH + 25 mg KRM, read-out: Rifalazil Concentration in Plasma, Med
[12] = 25 mg, INH + 25 mg KRM, read-out: Rifalazil Concentration in Plasma, Min
[13] = INH + 10 mg KRM, read-out: Rifalazil Concentration in Plasma, Mean
[14] = INH + 10 mg KRM, read-out: Rifalazil Concentration in Plasma, Max
[15] = INH + 10 mg KRM, read-out: Rifalazil Concentration in Plasma, Med
[16] = INH + 10 mg KRM, read-out: Rifalazil Concentration in Plasma, Min
[17] = INH + 25 mg KRM, read-out: Rifalazil Concentration in Plasma, Max
[18] = INH + 25 mg KRM, read-out: Rifalazil Concentration in Plasma, Mean
[19] = INH + 25 mg KRM, read-out: Rifalazil Concentration in Plasma, Med
[20] = INH + 25 mg KRM, read-out: Rifalazil Concentration in Plasma, Min

For `CO[C@H]1/C=C/O[C@@]2(C)Oc3c(C)c(O)c4c(=O)c(c5oc6cc(N7CCN(CC(C)C)CC7)cc(O)c6nc-5c4c3C2=O)NC(=O)/C(C)=C\C=C\[C@H](C)[C@H](O)[C@@H](C)[C@@H](O)[C@@H](C)[C@H](OC(C)=O)[C@@H]1C` [Rifalazil, 3′-hydroxy-5′-(4-isobutyl-1-piperazinyl)benzoxasinorifamycin], the MIC90 (M. intracellulare) is listed as 0.1 mg/L (≈ 0.106 µM), the MIC90 (M. avium [1]) is listed as 1.56 mg/L (≈ 1.66 µM) and the “MIC and MBC fold lower than rifampin” value [2] is listed as “at least 10 fold”. The “bacterial load on organs” value (M. avium [3]) was “reduced the bacterial load on organs compared to controls”, the “MIC and MBC fold lower than rifampin” value ([4]; extracellular bacteria) was “at least 10 fold” and the “MBCs relative to the MICs” value ([4]; typical) was 2-4 fold. The “maximum concentration of the drug in plasma” value ([5]; 10 mg rifalazil) was 12.68 ng/mL, the “maximum concentration of the drug in plasma” value ([5]; 25 mg rifalazil) was 28.47 ng/mL and the drug in plasma ([5]; 72 hours (3 days)) was “still measurable amount of drug in plasma”. For the same molecule, the “Rifalazil Concentration in Plasma, Max” value ([5]; INH + 10 mg KRM, Day 4 M-0) was 0 ng/mL, the “Rifalazil Concentration in Plasma, Mean” value ([5]; INH + 10 mg KRM, Day 4 M-0) was 0 ng/mL and the “Rifalazil Concentration in Plasma, Med” value ([5]; INH + 10 mg KRM, Day 4 M-0) was 0 ng/mL. The “Rifalazil Concentration in Plasma, Min” value ([5]; INH + 10 mg KRM, Day 4 M-0) was 0 ng/mL, the “Rifalazil Concentration in Plasma, Max” value ([5]; INH + 10 mg KRM, Day 8 M-4) was 21.9 ng/mL and the “Rifalazil Concentration in Plasma, Mean” value ([5]; INH + 10 mg KRM, Day 8 M-4) was 18.31 ng/mL. For the same molecule, the “Rifalazil Concentration in Plasma, Min” value ([5]; INH + 10 mg KRM, Day 8 M-4) was 9.7 ng/mL, the “Rifalazil Concentration in Plasma, Max” value ([5]; INH + 25 mg KRM, Day 4 M-0) was 0 ng/mL and the “Rifalazil Concentration in Plasma, Mean” value ([5]; INH + 25 mg KRM, Day 4 M-0) was 0 ng/mL. For the same molecule, the “Rifalazil Concentration in Plasma, Med” value ([5]; INH + 25 mg KRM, Day 4 M-0) was 0 ng/mL, the “Rifalazil Concentration in Plasma, Min” value ([5]; INH + 25 mg KRM, Day 4 M-0) was 0 ng/mL and the “Rifalazil Concentration in Plasma, Max” value ([5]; INH + 25 mg KRM, Day 8 M-4) was 41.0 ng/mL. For the same molecule, the “Rifalazil Concentration in Plasma, Mean” value ([5]; INH + 25 mg KRM, Day 8 M-4) was 29.02 ng/mL, the “Rifalazil Concentration in Plasma, Med” value ([5]; INH + 25 mg KRM, Day 8 M-4) was 28.5 ng/mL and the “Rifalazil Concentration in Plasma, Min” value ([5]; INH + 25 mg KRM, Day 8 M-4) was 11.7 ng/mL. The concentration at 3 h ([5]; 10 mg, 10 mg of rifalazil) was 9.7 ng/mL, the concentration at 11 day [5, 6] was 2.5 ng/mL and the concentration at 11 day [5, 7] was 1.4 ng/mL. It also gave a concentration at 11 day [5, 8] of 2 ng/mL, a concentration at 15 day [5, 6] of 0 ng/mL and a concentration at 15 day [5, 7] of 3 ng/mL. The concentration at 15 day [5, 8] was 0 ng/mL, the concentration at 3 h ([5]; 25 mg, 25 mg rifalazil) was 15.9 ng/mL and the concentration at 11 day [5, 9] was 9.1 ng/mL. It also gave a concentration at 11 day [5, 10] of 4.12 ng/mL, a concentration at 11 day [5, 11] of 3.3 ng/mL and a concentration at 11 day [5, 12] of 2.2 ng/mL. The concentration at 15 day [5, 9] was 3.4 ng/mL, the concentration at 15 day [5, 10] was 0.95 ng/mL and the concentration at 15 day [5, 11] was 0 ng/mL. For the same molecule, the concentration at 15 day [5, 12] was 0 ng/mL, the concentration at 11 day [5, 13] was 2.4 ng/mL and the concentration at 15 day [5, 13] was 3 ng/mL. The concentration at 0 h [5, 14] was 0 ng/mL, the concentration at 0 h [5, 13] was 0 ng/mL and the concentration at 0 h [5, 15] was 3 ng/mL. For the same molecule, the concentration at 0 h [5, 16] was 0 ng/mL, the concentration at 2 h [5, 14] was 20.3 ng/mL and the concentration at 2 h [5, 13] was 9.7 ng/mL. For the same molecule, the concentration at 2 h [5, 15] was 9 ng/mL, the concentration at 2 h [5, 16] was 0 ng/mL and the concentration at 5 h [5, 14] was 22.7 ng/mL. It also gave a concentration at 5 h [5, 13] of 12.5 ng/mL, a concentration at 5 h [5, 15] of 11.9 ng/mL and a concentration at 5 h [5, 16] of 4.2 ng/mL. The concentration at 9 h [5, 14] was 19.2 ng/mL, the concentration at 9 h [5, 13] was 9.75 ng/mL and the concentration at 9 h [5, 15] was 10.3 ng/mL. It also gave a concentration at 9 h [5, 16] of 3 ng/mL, a concentration at 12 h [5, 14] of 11.9 ng/mL and a concentration at 12 h [5, 13] of 10.7 ng/mL. The concentration at 12 h [5, 15] was 11.4 ng/mL, the concentration at 12 h [5, 16] was 6.2 ng/mL and the concentration at 24 h [5, 14] was 5 ng/mL. It also gave a concentration at 24 h [5, 13] of 3.6 ng/mL, a concentration at 24 h [5, 15] of 3.55 ng/mL and a concentration at 24 h [5, 16] of 2.3 ng/mL. For the same molecule, the concentration at 48 h [5, 14] was 2.5 ng/mL, the concentration at 48 h [5, 13] was 1.4 ng/mL and the concentration at 48 h [5, 15] was 2.5 ng/mL. The concentration at 48 h [5, 16] was 2.2 ng/mL, the concentration at 72 h [5, 14] was 2.2 ng/mL and the concentration at 72 h [5, 15] was 1 ng/mL. It also gave a concentration at 72 h [5, 16] of 0 ng/mL, a concentration at 0 h [5, 17] of 0 ng/mL and a concentration at 0 h [5, 18] of 0 ng/mL. It also gave a concentration at 0 h [5, 19] of 0 ng/mL, a concentration at 0 h [5, 20] of 0 ng/mL and a concentration at 2 h [5, 17] of 26.4 ng/mL. It also gave a concentration at 2 h [5, 18] of 15.3 ng/mL, a concentration at 2 h [5, 19] of 11.4 ng/mL and a concentration at 2 h [5, 20] of 2.3 ng/mL. The concentration at 5 h [5, 17] was 42.7 ng/mL, the concentration at 5 h [5, 18] was 25.5 ng/mL and the concentration at 5 h [5, 19] was 30.9 ng/mL. For the same molecule, the concentration at 5 h [5, 20] was 5.5 ng/mL, the concentration at 9 h [5, 17] was 38.2 ng/mL and the concentration at 9 h [5, 18] was 21.6 ng/mL. The concentration at 9 h [5, 19] was 22.1 ng/mL, the concentration at 9 h [5, 20] was 4.2 ng/mL and the concentration at 12 h [5, 17] was 20.5 ng/mL. The concentration at 12 h [5, 18] was 16.3 ng/mL, the concentration at 12 h [5, 19] was 18.1 ng/mL and the concentration at 12 h [5, 20] was 11.1 ng/mL. For the same molecule, the concentration at 24 h [5, 17] was 12.2 ng/mL, the concentration at 24 h [5, 18] was 7.72 ng/mL and the concentration at 24 h [5, 19] was 6.7 ng/mL. The concentration at 24 h [5, 20] was 4.3 ng/mL, the concentration at 48 h [5, 17] was 5.3 ng/mL and the concentration at 48 h [5, 18] was 2.15 ng/mL. The concentration at 48 h [5, 19] was 3.9 ng/mL, the concentration at 48 h [5, 20] was 0 ng/mL and the concentration at 72 h [5, 17] was 3.2 ng/mL. It also gave a concentration at 72 h [5, 18] of 2.15 ng/mL, a concentration at 72 h [5, 19] of 2.7 ng/mL and a concentration at 72 h [5, 20] of 0 ng/mL.

— US7772228B2, “Method for treatment of bacterial infections with once or twice-weekly administered rifalazil” (priority 1998, dated 2010)
